The source of these data is patent US20200172529A1, “Chemical Compound, Pharmaceutical Composition Thereof, and Use and Application Thereof” (Beijing Hanmi Pharm. Co., Ltd., priority 2017, published 2020).

As usually defined, the IC50 is the midpoint of a concentration-inhibition curve.

What all share (format): biochemical
The target of one test is JAK1 kinase (Homo sapiens, UniProt P23458). Nature of the test: Inhibition assay of JAK1 kinase activity (ADP-Glo Kinase Assay). An excerpt: Inhibition assay of JAK1 kinase activity: the method in ADP-Glo™ Kinase Assay (Promega, V9102) was used to determine the inhibitory activity of the test compounds against JAK1 kinase.
On the technique in general: ADP-Glo turns the ADP formed in a reaction into a luminescent signal.

For the next test, the target named is SYK kinase (Homo sapiens, UniProt P43405). Nature of the test: Inhibition assay of SYK kinase activity (ADP-Glo Kinase Assay). The source says:
Inhibition assay of SYK kinase activity: the method in ADP-Glo™ Kinase Assay (Promega, V9102) was used to determine the inhibitory activity of the test compounds against SYK kinase.

In another test the target is T1, JAK3 kinase (Homo sapiens, UniProt P52333).
T1 sequence (P52333 1-1124): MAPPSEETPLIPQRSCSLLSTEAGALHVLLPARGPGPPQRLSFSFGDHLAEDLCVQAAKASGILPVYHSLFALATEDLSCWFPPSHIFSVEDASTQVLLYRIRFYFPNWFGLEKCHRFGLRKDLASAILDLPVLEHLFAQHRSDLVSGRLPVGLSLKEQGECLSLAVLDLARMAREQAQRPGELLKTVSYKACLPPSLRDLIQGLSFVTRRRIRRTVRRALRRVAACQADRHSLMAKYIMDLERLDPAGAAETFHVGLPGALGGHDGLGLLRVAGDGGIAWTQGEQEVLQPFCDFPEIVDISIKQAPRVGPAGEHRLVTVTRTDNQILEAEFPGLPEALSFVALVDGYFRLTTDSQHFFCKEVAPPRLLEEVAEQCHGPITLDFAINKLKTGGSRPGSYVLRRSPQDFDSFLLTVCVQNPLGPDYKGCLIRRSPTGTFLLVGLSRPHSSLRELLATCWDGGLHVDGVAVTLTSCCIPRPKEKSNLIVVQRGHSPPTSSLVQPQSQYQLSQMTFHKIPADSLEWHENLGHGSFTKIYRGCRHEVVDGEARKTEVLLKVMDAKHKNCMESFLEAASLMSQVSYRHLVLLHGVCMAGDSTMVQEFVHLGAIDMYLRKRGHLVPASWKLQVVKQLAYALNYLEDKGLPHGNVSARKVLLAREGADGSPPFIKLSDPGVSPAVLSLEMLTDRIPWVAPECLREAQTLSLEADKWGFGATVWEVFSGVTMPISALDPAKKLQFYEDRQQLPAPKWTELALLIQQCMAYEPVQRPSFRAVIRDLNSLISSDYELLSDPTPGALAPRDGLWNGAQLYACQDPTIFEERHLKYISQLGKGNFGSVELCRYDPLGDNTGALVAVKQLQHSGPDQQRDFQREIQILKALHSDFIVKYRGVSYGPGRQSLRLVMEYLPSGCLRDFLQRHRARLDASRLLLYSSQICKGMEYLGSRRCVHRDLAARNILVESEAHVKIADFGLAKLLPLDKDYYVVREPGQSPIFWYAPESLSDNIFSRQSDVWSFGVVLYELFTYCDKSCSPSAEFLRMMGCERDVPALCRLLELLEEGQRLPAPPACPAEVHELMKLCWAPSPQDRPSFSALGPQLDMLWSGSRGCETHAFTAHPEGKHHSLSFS
The experiment in a line: Inhibition assay of JAK3 kinase activity (ADP-Glo Kinase Assay). An excerpt: Inhibition assay of JAK3 kinase activity: the method in ADP-Glo™ Kinase Assay (Promega, V9102) was used to determine the inhibitory activity of the test compounds against JAK3 kinase.

Another test has as its target JAK2 kinase (Homo sapiens, UniProt O60674). Nature of the test: Inhibition assay of JAK2 kinase activity (ADP-Glo Kinase Assay). An excerpt: Inhibition assay of JAK2 kinase activity: the method in ADP-Glo™ Kinase Assay (Promega, V9102) was used to determine the inhibitory activity of the test compounds against JAK2 kinase.
The target of the next test is T2, TYK2 kinase (Homo sapiens, UniProt P29597).
T2 construct: purchased Life Technologies PR8440C
Nature of the test: Inhibition assay of TYK2 kinase activity (ADP-Glo Kinase Assay). In a few lines:
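Enzyme at 0.8 ng/mL (2-fold final) in 40 mM Tris-HCl pH 7.5, 20 mM MgCl2, 0.1 mg/mL BSA, 1 mM DTT, preincubated 10 min with compound (6 points, 10-fold dilutions from 10 μM). ATP plus polyE4Y1 then added for 60 min at room temperature. ADP-Glo luminescence read and IC50 derived.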

Sequence of JAK1 kinase (P23458 whole entry): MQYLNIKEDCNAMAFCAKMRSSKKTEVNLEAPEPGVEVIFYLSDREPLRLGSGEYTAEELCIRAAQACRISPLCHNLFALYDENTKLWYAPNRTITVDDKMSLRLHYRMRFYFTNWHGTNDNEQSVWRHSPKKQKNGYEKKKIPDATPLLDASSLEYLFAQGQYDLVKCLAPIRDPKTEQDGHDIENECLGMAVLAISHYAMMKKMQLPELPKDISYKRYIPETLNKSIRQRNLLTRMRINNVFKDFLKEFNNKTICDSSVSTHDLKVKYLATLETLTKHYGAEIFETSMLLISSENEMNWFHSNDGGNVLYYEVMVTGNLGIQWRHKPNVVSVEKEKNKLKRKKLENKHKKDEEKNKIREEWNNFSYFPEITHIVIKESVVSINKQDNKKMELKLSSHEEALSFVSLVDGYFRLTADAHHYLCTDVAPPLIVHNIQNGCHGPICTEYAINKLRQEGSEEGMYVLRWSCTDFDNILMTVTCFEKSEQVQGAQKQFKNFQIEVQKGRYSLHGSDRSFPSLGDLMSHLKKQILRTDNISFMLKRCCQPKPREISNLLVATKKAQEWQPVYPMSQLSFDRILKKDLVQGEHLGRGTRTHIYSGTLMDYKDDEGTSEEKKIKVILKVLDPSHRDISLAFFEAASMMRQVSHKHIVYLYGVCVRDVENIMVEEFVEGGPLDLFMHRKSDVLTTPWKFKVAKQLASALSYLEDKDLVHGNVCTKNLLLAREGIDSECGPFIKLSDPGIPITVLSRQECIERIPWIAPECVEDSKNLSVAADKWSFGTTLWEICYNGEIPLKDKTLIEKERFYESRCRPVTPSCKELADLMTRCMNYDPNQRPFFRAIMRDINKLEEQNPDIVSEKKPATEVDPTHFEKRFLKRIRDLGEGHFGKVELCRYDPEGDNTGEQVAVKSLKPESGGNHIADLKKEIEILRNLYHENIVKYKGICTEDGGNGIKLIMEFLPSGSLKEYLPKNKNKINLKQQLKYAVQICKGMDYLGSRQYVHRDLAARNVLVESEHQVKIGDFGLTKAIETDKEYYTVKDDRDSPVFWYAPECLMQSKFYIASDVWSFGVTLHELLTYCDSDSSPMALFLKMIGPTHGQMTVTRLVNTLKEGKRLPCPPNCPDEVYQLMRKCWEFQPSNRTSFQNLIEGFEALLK
T2 sequence (P29597 whole entry): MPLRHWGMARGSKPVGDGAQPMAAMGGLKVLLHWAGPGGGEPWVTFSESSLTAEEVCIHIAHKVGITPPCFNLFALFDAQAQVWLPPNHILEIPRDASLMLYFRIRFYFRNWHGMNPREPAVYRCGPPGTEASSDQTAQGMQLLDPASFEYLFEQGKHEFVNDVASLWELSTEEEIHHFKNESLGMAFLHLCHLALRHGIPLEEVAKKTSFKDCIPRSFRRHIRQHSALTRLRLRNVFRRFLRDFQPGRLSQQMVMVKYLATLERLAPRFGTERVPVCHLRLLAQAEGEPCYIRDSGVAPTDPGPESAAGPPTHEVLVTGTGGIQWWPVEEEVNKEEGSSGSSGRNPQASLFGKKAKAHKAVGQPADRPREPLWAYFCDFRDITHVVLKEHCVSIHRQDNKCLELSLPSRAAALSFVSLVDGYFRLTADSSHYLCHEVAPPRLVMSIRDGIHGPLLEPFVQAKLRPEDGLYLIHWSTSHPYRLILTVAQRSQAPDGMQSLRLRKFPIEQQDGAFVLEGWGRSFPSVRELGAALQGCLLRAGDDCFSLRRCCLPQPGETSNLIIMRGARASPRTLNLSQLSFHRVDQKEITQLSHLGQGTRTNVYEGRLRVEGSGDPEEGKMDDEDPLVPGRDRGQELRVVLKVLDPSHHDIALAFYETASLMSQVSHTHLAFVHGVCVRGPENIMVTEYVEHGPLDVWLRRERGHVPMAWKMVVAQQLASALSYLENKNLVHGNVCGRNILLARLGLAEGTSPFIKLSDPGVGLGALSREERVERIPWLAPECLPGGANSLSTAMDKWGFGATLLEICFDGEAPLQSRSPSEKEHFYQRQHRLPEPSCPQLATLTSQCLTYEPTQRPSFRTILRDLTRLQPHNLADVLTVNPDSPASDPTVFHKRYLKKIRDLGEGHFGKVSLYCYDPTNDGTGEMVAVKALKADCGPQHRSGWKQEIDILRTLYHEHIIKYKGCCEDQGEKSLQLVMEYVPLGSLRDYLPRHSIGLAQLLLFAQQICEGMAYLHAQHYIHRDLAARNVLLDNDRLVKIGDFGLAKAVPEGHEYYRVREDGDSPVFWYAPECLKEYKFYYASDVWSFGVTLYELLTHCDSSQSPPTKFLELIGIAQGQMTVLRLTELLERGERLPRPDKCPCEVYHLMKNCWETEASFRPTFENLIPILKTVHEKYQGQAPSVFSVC
Sequence of JAK2 kinase (O60674 whole entry): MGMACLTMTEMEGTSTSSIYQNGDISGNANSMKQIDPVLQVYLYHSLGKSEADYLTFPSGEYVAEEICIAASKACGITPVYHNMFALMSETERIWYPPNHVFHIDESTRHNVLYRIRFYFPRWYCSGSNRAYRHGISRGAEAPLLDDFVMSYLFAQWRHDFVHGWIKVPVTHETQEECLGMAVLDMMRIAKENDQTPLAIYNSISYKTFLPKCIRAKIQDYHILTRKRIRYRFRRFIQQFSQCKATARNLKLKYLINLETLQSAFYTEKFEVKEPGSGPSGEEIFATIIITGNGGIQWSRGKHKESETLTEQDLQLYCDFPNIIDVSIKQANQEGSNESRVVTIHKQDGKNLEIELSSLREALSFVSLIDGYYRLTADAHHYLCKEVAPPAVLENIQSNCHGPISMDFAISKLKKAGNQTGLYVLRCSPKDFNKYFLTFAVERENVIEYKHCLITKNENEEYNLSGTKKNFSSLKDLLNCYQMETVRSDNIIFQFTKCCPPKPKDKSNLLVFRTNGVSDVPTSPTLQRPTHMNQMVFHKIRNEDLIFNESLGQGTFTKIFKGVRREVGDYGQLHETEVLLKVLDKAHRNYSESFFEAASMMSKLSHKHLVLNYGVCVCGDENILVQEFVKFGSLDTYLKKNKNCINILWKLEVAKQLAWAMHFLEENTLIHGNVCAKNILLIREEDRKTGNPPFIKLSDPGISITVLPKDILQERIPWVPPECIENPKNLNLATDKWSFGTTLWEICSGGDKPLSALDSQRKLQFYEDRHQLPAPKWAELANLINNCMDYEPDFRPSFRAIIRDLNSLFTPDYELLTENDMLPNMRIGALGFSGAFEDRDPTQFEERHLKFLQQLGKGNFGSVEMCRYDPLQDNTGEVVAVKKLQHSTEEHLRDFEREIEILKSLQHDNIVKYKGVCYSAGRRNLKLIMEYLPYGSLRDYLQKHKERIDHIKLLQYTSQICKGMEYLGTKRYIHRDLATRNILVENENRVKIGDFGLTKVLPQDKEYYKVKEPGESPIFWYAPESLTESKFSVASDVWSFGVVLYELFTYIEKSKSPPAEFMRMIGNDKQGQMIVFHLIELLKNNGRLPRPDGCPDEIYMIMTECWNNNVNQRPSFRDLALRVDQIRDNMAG

For `NC(=O)c1cnc(Nc2ccc3c(c2)NC[C@H](OCC(=O)O)CO3)nc1NC1CC1` [Example 94, 4-(cyclopropylamino)-2-(((S)-2,3,4,5-tetrahydro-3-(carboxymethoxy)benzo[b][1,4]oxazepin-7-yl)amino)pyrimidin-5-carboxamide], the IC50 was less than 10 nM against JAK1 kinase; 10 to 100 nM at SYK kinase; 10 to 100 nM on JAK3 kinase; less than 10 nM at JAK2 kinase; less than 10 nM on TYK2 kinase.
`COCCCO[C@H]1CNc2cc(Nc3ncc(C(N)=O)c(NC4CC4)n3)ccc2OC1` [Example 98, 4-(cyclopropylamino)-2-(((S)-2,3,4,5-tetrahydro-3-(3-methoxypropoxy)benzo[b][1,4]oxazepin-7-yl)amino)pyrimidin-5-carboxamide]: the IC50 was less than 10 nM on JAK1 kinase; 10 to 100 nM against SYK kinase; 10 to 100 nM at JAK3 kinase; 10 to 100 nM at JAK2 kinase; less than 10 nM at TYK2 kinase.
On to `CCOC(=O)CO[C@H]1CNc2cc(Nc3ncc(C(N)=O)c(NC4CC4)n3)ccc2OC1` [Example 91, 4-(cyclopropylamino)-2-(((S)-2,3,4,5-tetrahydro-3-ethoxycarbonylmethoxybenzo[b][1,4]oxazepin-7-yl)amino)pyrimidin-5-carboxamide], for which the IC50 at JAK1 kinase is less than 10 nM; against SYK kinase, 10 to 100 nM; against JAK3 kinase, 10 to 100 nM; against JAK2 kinase, 10 to 100 nM; on TYK2 kinase it was less than 10 nM.
As for `CC1(Nc2nc(Nc3ccc4c(c3)NC[C@H](O)CO4)ncc2C(N)=O)CC1` [Example 68, 4-((1-methylcyclopropyl)amino)-2-(((S)-2,3,4,5-tetrahydro-3-hydroxybenzo[b][1,4]oxazepin-7-yl)amino)pyrimidin-5-carboxamide], the IC50 on JAK1 kinase was less than 10 nM; at SYK kinase it was 10 to 100 nM; on JAK3 kinase, 10 to 100 nM; against JAK2 kinase, less than 10 nM; at TYK2 kinase it was less than 10 nM.
As to `CCOCCO[C@H]1CNc2cc(Nc3ncc(C(N)=O)c(NC4CC4)n3)ccc2OC1` [Example 95, 4-(cyclopropylamino)-2-(((S)-2,3,4,5-tetrahydro-3-(2-ethoxyethoxy)benzo[b][1,4]oxazepin-7-yl)amino)pyrimidin-5-carboxamide], the IC50 against JAK1 kinase was less than 10 nM; against SYK kinase, 10 to 100 nM; on JAK3 kinase, less than 10 nM; on JAK2 kinase it was 10 to 100 nM; at TYK2 kinase, less than 10 nM.
Turning to `NC(=O)c1cnc(Nc2ccc3c(c2)NC[C@H](OCCO)CO3)nc1NC1CC1` [Example 92, 4-(cyclopropylamino)-2-(((S)-2,3,4,5-tetrahydro-3-(2-hydroxyethoxy)benzo[b][1,4]oxazepin-7-yl)amino)pyrimidin-5-carboxamide], the IC50 against JAK1 kinase was less than 10 nM; against SYK kinase, 10 to 100 nM; on JAK3 kinase, less than 10 nM; against JAK2 kinase, less than 10 nM; against TYK2 kinase it was less than 10 nM.
Turning to `COCCO[C@@H]1CNc2cc(Nc3ncc(C(N)=O)c(NC4CC4)n3)ccc2OC1` [Example 86, 4-(cyclopropylamino)-2-(((R)-2,3,4,5-tetrahydro-3-methoxyethoxybenzo[b][1,4]oxazepin-7-yl)amino)pyrimidin-5-carboxamide], the IC50 is 10 to 100 nM on JAK1 kinase; 10 to 100 nM against SYK kinase; 10 to 100 nM against JAK3 kinase; less than 10 nM at JAK2 kinase; less than 10 nM at TYK2 kinase.
Consider `C=CCNc1nc(Nc2ccc3c(c2)NC[C@H](O)CO3)ncc1C(N)=O` [Example 60, 4-(allylamino)-2-(((S)-2,3,4,5-tetrahydro-3-hydroxybenzo[b][1,4]oxazepin-7-yl)amino)pyrimidin-5-carboxamide], for which the IC50 against JAK1 kinase was less than 10 nM; on SYK kinase it was 10 to 100 nM; against JAK3 kinase, 10 to 100 nM; against JAK2 kinase, 10 to 100 nM; at TYK2 kinase, less than 10 nM.
Turning to `C#CCCCNc1nc(Nc2ccc3c(c2)NC[C@H](O)CO3)ncc1C(N)=O` [Example 72, 4-(pent-4-yn-1-ylamino)-2-(((S)-2,3,4,5-tetrahydro-3-hydroxybenzo[b][1,4]oxazepin-7-yl)amino)pyrimidin-5-carboxamide], the IC50 is less than 10 nM against JAK1 kinase; 10 to 100 nM against SYK kinase; less than 10 nM against JAK3 kinase; less than 10 nM against JAK2 kinase; less than 10 nM against TYK2 kinase.
Regarding `C#CCCNc1nc(Nc2ccc3c(c2)NC[C@H](O)CO3)ncc1C(N)=O` [Example 66, 4-(but-3-yn-1-ylamino)-2-(((S)-2,3,4,5-tetrahydro-3-hydroxybenzo[b][1,4]oxazepin-7-yl)amino)pyrimidin-5-carboxamide], the IC50 at JAK1 kinase is less than 10 nM; at SYK kinase, 10 to 100 nM; on JAK3 kinase, 10 to 100 nM; at JAK2 kinase, 10 to 100 nM; against TYK2 kinase, less than 10 nM.
As to `CCO[C@H]1CNc2cc(Nc3ncc(C(N)=O)c(NC4CC4)n3)ccc2OC1` [Example 79, 4-(cyclopropylamino)-2-(((S)-2,3,4,5-tetrahydro-3-ethoxybenzo[b][1,4]oxazepin-7-yl)amino)pyrimidin-5-carboxamide], the IC50 on JAK1 kinase is less than 10 nM; at SYK kinase, 10 to 100 nM; against JAK3 kinase it was 10 to 100 nM; against JAK2 kinase it was 10 to 100 nM; against TYK2 kinase, less than 10 nM.
With `COC1CNc2cc(Nc3ncc(C(N)=O)c(NC4CC4)n3)ccc2OC1` (centres unmarked) [Example 24, 4-(cyclopropylamino)-2-((3-methoxy-2,3,4,5-tetrahydro-benzo[b][1,4]oxazepin-7-yl)amino)pyrimidin-5-carboxamide], the IC50 against JAK1 kinase was 10 to 100 nM; at SYK kinase, 10 to 100 nM; against JAK3 kinase it was 10 to 100 nM; against JAK2 kinase, 10 to 100 nM; against TYK2 kinase it was less than 10 nM.
On to `COCCOCCO[C@H]1CNc2cc(Nc3ncc(C(N)=O)c(NC4CC4)n3)ccc2OC1` [Example 89, 4-(cyclopropylamino)-2-(((S)-2,3,4,5-tetrahydro-3-(2-(2-methoxyethoxy)ethoxy)benzo[b][1,4]oxazepin-7-yl)amino)pyrimidin-5-carboxamide], for which the IC50 was less than 10 nM against JAK1 kinase; 10 to 100 nM against SYK kinase; 10 to 100 nM against JAK3 kinase; 10 to 100 nM against JAK2 kinase; less than 10 nM on TYK2 kinase.
Turning to `NC(=O)c1cnc(Nc2ccc3c(c2)NC[C@H](O)CO3)nc1NCC1CC1` [Example 44, 4-((cyclopropylmethyl)amino)-2-(((S)-2,3,4,5-tetrahydro-3-hydroxybenzo[b][1,4]oxazepin-7-yl)amino)pyrimidin-5-carboxamide], the IC50 on JAK1 kinase is less than 10 nM; at SYK kinase it was 10 to 100 nM; at JAK3 kinase, less than 10 nM; against JAK2 kinase, less than 10 nM; on TYK2 kinase, less than 10 nM.
With `CC(C)OCCO[C@H]1CNc2cc(Nc3ncc(C(N)=O)c(NC4CC4)n3)ccc2OC1` [Example 96, 4-(cyclopropylamino)-2-(((S)-2,3,4,5-tetrahydro-3-(2-isopropoxyethoxy)benzo[b][1,4]oxazepin-7-yl)amino)pyrimidin-5-carboxamide], the IC50 on JAK1 kinase was less than 10 nM; against SYK kinase it was 10 to 100 nM; against JAK3 kinase it was 10 to 100 nM; at JAK2 kinase, 10 to 100 nM; against TYK2 kinase it was less than 10 nM.
As to `C=CCCNc1nc(Nc2ccc3c(c2)NC[C@H](O)CO3)ncc1C(N)=O` [Example 76, 4-(but-3-enylamino)-2-(((S)-2,3,4,5-tetrahydro-3-hydroxybenzo[b][1,4]oxazepin-7-yl)amino)pyrimidin-5-carboxamide], the IC50 against JAK1 kinase was less than 10 nM; at SYK kinase, 10 to 100 nM; at JAK3 kinase, less than 10 nM; against JAK2 kinase it was less than 10 nM; on TYK2 kinase it was 10 to 100 nM.
